# Laboratory results reported in patent US20180133211A1, “METHODS AND MATERIALS FOR PROMOTING BONE FORMATION” (Mayo Foundation for Medical Education and Research, priority 2015, published 2018).
# How the values were obtained:
# [1] = test system: sham operated or ovariectomized (OVX) mice; assay: Quantitative backscattered electron imaging (qBEI) of bone mineralization, SFN in vivo; parameters: species or system mouse; conditions: two-way ANOVA
# Procedure: Analysis of SFN on mice was performed using a protocol similar to that described elsewhere (Kong et al., Arthritis Rheum., 62:159-170 (2010)). In the experimental setting herein, eight week old sham operated or ovariectomized (OVX) C57B16/J female mice were purchased from Charles River laboratories. Mice were injected with 7.5 mM DL-SFN (200 μL of SFN at a concentration of 63.8 mg/mL/kg dissolved in ethanol and further diluted in PBS) intraperitoneally every other day for five weeks. Control mice received vehicle alone.
# Un-decalcified distal femora from 13 weeks old mice, sham/Crt (n=5), sham/DL-SFN (n=5), OVX/ctrl (n=4) and OVX/DL-SFN (n=5), were fixed and dehydrated in alcohol, embedded in polymethylmethacrylate (PMMA), and prepared for backscattered electron imaging as previously described. qBEI is based on backscattering of electrons from the surface-layer (i.e., the initial ˜1.5 micron) of a bone section. The rate of these backscattered electrons is proportional to the weight concentration of mineral (hydroxyapatite), and thus of that of calcium in bone. Details of the method were described elsewhere (Roschger et al., Bone, 42:456-466 (2008)). A scanning electron microscope (DSM 962, Zeiss, Oberkochen, Germany) equipped with a four quadrant semiconductor backscattered electron detector was used. […]
# [2] = test system: Runx2 protein in MC3T3-E1 cells; assay: Runx2 immunoblotting; format: cell-based, mouse; conditions: MC3T3-E1, 3 μM, after both 24 hours and 14 days
# Procedure: Whole cell protein extracts were prepared using SDS sample buffer (2% SDS, 100 mM β-mercaptoethanol and 125 mM Tris-HCl, pH=6.8) and heated at 95° C. for 5 minutes. To obtain supernatant protein extracts, cell medium was collected, and proteins were precipitated with 50% trichloroacetic acid at 4° C. for 1 hour, concentrated by centrifugation, neutralized with PBS, and dissolved in SDS sample buffer.
# For immunoblotting analysis, 15 μg of protein extracts were separated on 10% SDS poly-acryl amide gels, transferred to nitrocellulose membranes (Millipore), and blocked overnight with 10% blocking reagent (Roche) in TN buffer (50 mM Tris and 125 mM NaCl, pH=8.0). The following primary antibodies were used: rabbit, anti-Runx2 (sc-10758, Santa Cruz Biotechnologies, Santa Cruz, Calif.) and rabbit, anti-β-Actin (#4967, Cell Signaling, Danvers, Mass., USA). Washing was performed with TN buffer containing 0.01% Tween. Binding of the secondary antibody (anti-rabbit IgG/anti-mouse IgG horseradish peroxidase-coupled) (Roche) diluted 1:10,000 in 10% blocking solution followed by detection with the BM chemo-luminescence immunoblotting kit (Roche) was carried out as described by the supplier. Chemo-luminescence was measured with an image acquisition system (Vilber Lourmat, Marne-la-Vallée, France). Measurements are given as means of 3 immuno-blots, and representative blots are shown.
# [3] = test system: H3K27me3 marks in MC3T3 cells; assay: H3K27me3 ChIPSeq in MC3T3 cells; format: cell-based, mouse; conditions: MC3T3, 5 μM GSK126, 24 hours
# Procedure: MC3T3 (10,000 cells/cm^2) were plated in 10 cm plates in maintenance medium. Two days later, 5 μM GSK126 or vehicle were added to the cells in osteogenic medium. Twenty four hours later, cells were harvested by trypsin, and a chromatin immunoprecipitation assay (ChIP) was performed as described elsewhere (Dudakovic et al., J. Biol. Chem., 288:28783-28791 (2013)) using H3K27Me3 (17-622, Lot 2213948, Millipore) and IgG (PP64B, Lot 2056666A, Millipore) antibodies.
# Sequencing libraries were prepared and massively parallel high throughput sequencing was performed on Illumina HiSeq2000 system. The alignment, quality assessment, peak calling, and visualization were performed with the HiChIP analysis pipeline (Yan et al., BMC Bioinformatics, 15:280 (2014)). Briefly, the 50 base-pair reads were aligned to the mm10 reference genome using Burrows-Wheeler Aligner. Duplicates were marked with Picard (http://broadinstitute.github.io/picard), and read-pairs without a unique alignment were filtered out using SAMTools (Li et al., Bioinformatics, 25:2078-2079 (2009)). Duplicates were filtered out using a custom script, and pairs with one or both ends mapped uniquely were retained. Enriched regions were identified using SICER (Zang et al., Bioinformatics, 25:1952-1958 (2009)).
# [4] = test system: Mesenchymal stem cells; assay: RNA-Seq of mesenchymal stem cells treated with BMP2 and/or GSK126; format: cell-based, human; conditions: 2 μM GSK126 together with 50 ng/ml BMP2
# Procedure: mRNASeq was performed on the following samples: 1) MSCs grown on plastic or titanium disks in osteogenic cocktail (one sample from each time-point, samples created by pooling biological triplicates), 2) RNA from d3 AMCs treated with vehicle or 2 μM GSK126 in osteogenic cocktail (three samples from each treatment group), 3) RNA from d3, d6, and d10 MC3T3 treated with vehicle or 5 μM GSK126 (one sample from each treatment group at each time-point, samples created by pooling biological triplicates), 4) RNA from three day old female WT or cKO (Prrx1-Ezh2) (one sample from each genotype, pooling of RNA from three (WT) and two (cKO)), and one sample of MSCs in adipogenic cocktail for six days. High throughput mRNA sequencing and bioinformatic analyses (mRNASeq) were performed as described elsewhere (Dudakovic et al., J. Cell Biochem., 115:1816-1828 (2014)).
# In addition, osteogenic genes are synergistically activated by GSK126 and BMP2. Mesenchymal stem cells were treated with 50 ng/ml BMP2 and/or 2 μM GSK126. […] Thus, EZH2 inhibition enhances the osteogenic potential of cells treated with BMP2, a key osteogenic activator.
Compound,CaPeak and CaWidth of trabecular bone (qBEI) [1],Runx2 protein expression [2],deposition of H3K27me3 marks near transcriptional start sites (TSSs) across the genome [3],"expression of key osteogenic factors DLXS, SP7, IBSP [4]"
C[S+]([O-])CCCCN=C=S (racemic) [DL-SFN],no effects,significant increase,–,–
"CC[C@H](C)n1cc(C)c2c(C(=O)NCc3c(C)cc(C)[nH]c3=O)cc(-c3ccc(N4CCNCC4)nc3)cc21 [GSK126, N-[(1,2-dihydro-4,6-dimethyl-2-oxo-3-pyridinyl)methyl]-3-methyl-1-[(1S)-1-methylpropyl]-6-[6-(1-piperazinyl)-3-pyridinyl]-1H-indole-4-carboxamide]",–,–,decreased,synergistically enhanced
